# Where a name gives a salt, the structure may show the parent alone.
# Experiments:
# [1] = system: N-acetylglycosaminidase (as osteoclastic activity index); details: scalp slices of new-born mouse, tissue culture; starting from the 10 μmolar concentration
# Procedure: (§1) A study on a tissue culture (scalp slices of new-born mouse prepared according to the method described by A. Togari, Gen. Pharmacol. 24, 1133, 1993) was performed. At the end of the culture period, the tissue added μmolar concentrations of the title product, was homogenised in saline plus 0.1% Triton X-100.
# (§2) The obtained homogenate was used to determine alkaline phosphatase (as osteoblastic activity index) and N-acetylglycosaminidase (as osteoclastic activity index).
# [2] = system: alkaline phosphatase (as osteoblastic activity index); details: scalp slices of new-born mouse, tissue culture; starting from the 10 μmolar concentration
# Procedure: as §1, §2
smiles,measurement,setting,value
"NCCCC(O)(P(=O)(O)O)P(=O)(O)O [alendronate trometamine, alendronate trometamine salt]",osteoclastic activity (N-acetylglycosaminidase),[1],inhibit the osteoclastic activity
same,osteoblastic activity (alkaline phosphatase),[2],activate in a significant manner the osteoblastic activity

# — patent US6410782B1, “Diphosphonic acid salts for the treatment of osteoporosis” (Geange Ltd., priority 1997, dated 2002)
